Measured values reported in patent US9232792B2, “Method for promoting plant growth” (SUMITOMO CHEMICAL COMPANY, LIMITED, priority 2011, dated 2016).

What was measured:
[1] = tested on: Corn (cultivar: Kuromochi); experiment: Test Example 5: reduction of low-temperature stress by treatment of corn seeds; assay type: in vivo; conditions: 2.5±1° C. for 4 days, then 4 days at 27° C.
Experimental: Corn (cultivar: Kuromochi) A blank slurry solution containing 10% (V/V) color coat red (Becker Underwood, Inc.), 10% (V/V) CF-Clear (Becker Underwood, Inc.) and 1.66% Maxim 4FS (Syngenta) was prepared. A slurry solution was prepared by dissolving the present compound 1 in the blank slurry solution such that 0.5 g, 5 g or 50 g of the compound is applied to each 100 kg of corn seeds. In a 50-ml centrifuge tube (manufactured by BD Japan), 0.35 ml of the slurry solution was placed for each 14.4 g of corn seeds and stirred until the solution was dried, thereby coating the seeds. In addition, seeds were coated with the blank slurry solution and used as seeds for a non-treated group. One of the treated corn seeds was sown in culture soil (AISAI) in each pot (55 mm in diameter×58 mm in height) and cultivated for 10 days under the conditions of a temperature of 27° C., an illuminance of 5,000 lux, and a day length of 16 hours. The grown seedlings were used for the test. The pots at 10 days after the sowing were placed into an artificial weather control room (VHT-2-[…]-NC2-S, manufactured by Nippon Medical & Chemical Instruments Co., Ltd) and cultivated for 4 days under the following conditions: -temperature: 2.5±1° C., day length: 16 hours, and illuminance: 5,000 lux. After the low-temperature stress treatment, the plants were cultivated for 4 days under the conditions of a temperature of 27° C., an illuminance of 5,000 lux, and a day length of 16 hours. Then, the fresh weight of the overground part of the plants was measured. The experiment was performed in four replications for each treatment condition and the average weight per individual was calculated. As a result, the fresh weight of the overground part of plants in the treated group of applying 0.5 g, 5 g or 50 g of the present compound 1 to each 100 kg of seeds was much heavier than that in the non-treated group.

[2] = tested on: Rice (cultivar: Nipponbare); experiment: Test Example 7: reduction of drought stress by treatment of rice seeds; assay type: in vivo; conditions: drought 2 days, then 14 days hydroponics
Experimental: Rice (cultivar: Nipponbare) A blank slurry solution containing 5% (V/V) color coat red (Becker Underwood, Inc.), 5% (V/V) CF-Clear (Becker Underwood, Inc.) and 1% Maxim XL (Syngenta) was prepared. A slurry solution was prepared by dissolving the present compound 1 in the blank slurry solution such that 50 g or 100 g of the compound is applied to each 100 kg of rice seeds. In a 50-ml centrifuge tube (manufactured by AGC TECHNO GLASS CO., LTD.), 0.3 ml of the slurry solution was placed for each 10 g of rice seeds and stirred until the solution was dried, thereby coating the seeds. In addition, seeds were coated with the blank slurry solution and used as seeds for a non-treated group. A filter paper was placed on the holes of a plug tray having 406 holes, and the rice seeds treated above were sown on the filter paper. […] Fourteen (14) days after the treatment, the fresh weight of the overground parts of five test plants in each treated group was measured. The experiment was performed in three replications in each treated group and the average value was calculated. […]

[3] = seed treatment 50 g per 100 kg of seeds

Measured: fresh weight of the overground part of plants vs non-treated group

O=C(O)c1cc2cc(C(F)(F)F)ccc2s1 [The present compound 1, 5-(trifluoromethyl)benzo[b]thiophene-2-carboxylic acid]
much heavier: [1]; seed treatment 0.5 g per 100 kg of seeds | [1]; seed treatment 5 g per 100 kg of seeds | [1]; [3] | [2]; [3] | [2]; seed treatment 100 g per 100 kg of seeds
